Results: US20200115357A1, “LIVER X RECEPTORS (LXR) MODULATORS” (Phenex-FXR GmbH, priority 2017, published 2020)

Key:
[1] = target: T1, LXRα ligand-binding domain (LBD) (Homo sapiens, UniProt Q13133); experiment: LXR Gal4 reporter transient transfection assay (M2H), Gal4α LBD; assay type: cell-based; conditions: HEK293 cells; read-out: M2H Gal4α LBD activity range (EC50)
T1 construct: expressed in transfected cells; host or cells: HEK293
T1 sequence (Q13133 155-447): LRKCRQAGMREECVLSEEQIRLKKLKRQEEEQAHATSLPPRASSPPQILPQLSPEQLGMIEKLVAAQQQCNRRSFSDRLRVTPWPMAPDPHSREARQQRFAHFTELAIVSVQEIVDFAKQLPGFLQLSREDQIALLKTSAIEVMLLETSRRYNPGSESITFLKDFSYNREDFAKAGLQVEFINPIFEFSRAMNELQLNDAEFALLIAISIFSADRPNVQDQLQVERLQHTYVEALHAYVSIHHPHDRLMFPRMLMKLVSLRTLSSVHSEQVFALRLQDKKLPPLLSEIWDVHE
Experimental: (§1) The tested compounds were usually dissolved, tested and stored as 20 mM stock solutions in DMSO. Since sulfonyl acetic acid derivatives tend to decarboxylate under these conditions, these stock solutions were prepared, tested and stored as 20 mM DMSO stock solutions containing 100 mM trifluoroacetic acid (5 equivalents). Sulfonyl acetic acid derivatives are shelf stable as solid at rt for long time as reported by Griesbrecht et al. (Synlett 2010:374) or Faucher et al. (J. Med. Chem. 2004; 47:18).
(§2) LXR Gal4 Reporter Transient Transfection Assays
(§3) LXRα and LXRβ activity status was determined via detection of interaction with coactivator and corepressor proteins in mammalian two-hybrid experiments (M2H). For this, via transient transfection the full length (FL) proteins of LXRα (amino acids 1-447; NP005684; SEQ ID NO:7) or LXRβ-(amino acids 1-461; NP009052; SEQ ID NO:8) or the ligand-binding domains (LBD) of LXRα (amino acids 155-447 SEQ ID NO:3) or LXRβ (amino acids 156-461; SEQ ID NO:4) were expressed from pCMV-AD (Stratagene) as fusions to the transcriptional activation domain of NFkB. As cofactors, domains of either the steroid receptor coactivator 1 (SRC1; amino acids 552-887; SEQ ID NO:5) or of the corepressor NCoR (amino acids 1903-2312 SEQ ID NO:6) were expressed as fusions to the DNA binding domain of the yeast transcription factor GAL4 (from pCMV-BD; Stratagene). Interaction was monitored via activation of a coexpressed Firefly Luciferase Reporter gene under control of a promoter containing repetitive GAL4 response elements (vector pFRLuc; Stratagene). Transfection efficiency was controlled via cotransfection of constitutively active pRL-CMV Renilla reniformis luciferase reporter (Promega). HEK293 cells were grown in minimum essential medium (MEM) with 2 mM L-glutamine and Earle's balanced salt solution supplemented with 8.3% fetal bovine serum, 0.1 mM non-essential amino acids, 1 mM sodium pyruvate, at 37° C. in 5% CO2. 3.5×10^4 cells/well were plated in 96-well cell culture plates in growth medium supplemented with 8.3% fetal bovine serum for 16-20 h to ˜90% confluency. For transfection, medium was taken off and LXR and cofactor expressing plasmids as well as the reporter plasmids are added in 30 μL OPTIMEM/well including polyethylene-imine (PEI) as vehicle. Typical amounts of plasmids transfected/well: pCMV-AD-LXR (5 ng), pCMV-BD-cofactor (5 ng), pFR-Luc (100 ng), pRL-CMV (0.5 ng). Compound stocks were prepared in DMSO, prediluted in MEM to a total volume of 120 μL, and added 4 h after addition of the transfection mixture (final vehicle concentration not exceeding 0.2%). Cells were incubated for additional 16 h, lysed for 10 min in 1× Passive Lysis Buffer (Promega) and Firefly and Renilla luciferase activities were measured sequentially in the same cell extract using buffers containing D-luciferine and coelenterazine, respectively. Measurements of luminescence were done in a BMG-Iuminometer.

[2] = target: T2, LXRβ ligand-binding domain (LBD) (Homo sapiens, UniProt P55055, DUP175-175); experiment: LXR Gal4 reporter transient transfection assay (M2H), Gal4β LBD; assay type: cell-based; conditions: HEK293 cells; read-out: M2H Gal4β LBD activity range (EC50)
T2 construct: LXRβ (amino acids 156-461); expressed in transfected cells; host or cells: HEK293
T2 sequence (P55055 with tags, fused parts or gaps DUP175-175): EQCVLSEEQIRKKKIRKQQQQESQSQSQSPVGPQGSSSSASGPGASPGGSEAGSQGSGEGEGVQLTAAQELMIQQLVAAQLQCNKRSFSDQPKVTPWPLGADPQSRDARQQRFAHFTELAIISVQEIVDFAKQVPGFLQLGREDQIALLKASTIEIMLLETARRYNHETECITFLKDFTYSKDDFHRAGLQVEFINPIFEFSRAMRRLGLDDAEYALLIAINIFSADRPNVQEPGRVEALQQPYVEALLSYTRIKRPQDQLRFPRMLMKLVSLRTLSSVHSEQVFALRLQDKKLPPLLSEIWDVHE
Experimental: as §1, §2, §3

[3] = target: T3, LXRβ full length (FL) (Homo sapiens, UniProt P55055, DUP175-175); experiment: LXR Gal4 reporter transient transfection assay (M2H), Gal4β FL; assay type: cell-based; conditions: HEK293 cells; read-out: M2H Gal4β FL activity range (EC50)
T3 construct: the full length (FL) proteins of LXRα (amino acids 1-447); NP005684; NP009052; expressed in transfected cells; host or cells: HEK293
T3 sequence (P55055 with tags, fused parts or gaps DUP175-175): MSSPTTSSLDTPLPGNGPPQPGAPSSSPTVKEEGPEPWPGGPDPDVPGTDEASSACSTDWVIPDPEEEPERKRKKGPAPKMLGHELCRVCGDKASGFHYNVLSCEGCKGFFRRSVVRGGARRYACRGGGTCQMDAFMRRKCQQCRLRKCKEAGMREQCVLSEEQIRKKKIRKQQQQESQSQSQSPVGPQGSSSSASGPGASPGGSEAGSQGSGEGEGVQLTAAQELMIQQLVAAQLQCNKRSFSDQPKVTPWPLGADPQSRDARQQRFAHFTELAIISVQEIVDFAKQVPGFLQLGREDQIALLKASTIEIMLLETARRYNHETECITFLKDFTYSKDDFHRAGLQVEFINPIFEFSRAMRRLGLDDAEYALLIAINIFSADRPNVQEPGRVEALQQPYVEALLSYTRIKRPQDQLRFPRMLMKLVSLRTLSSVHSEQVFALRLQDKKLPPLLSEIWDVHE
Procedure, shortened: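 Mammalian two-hybrid in HEK293 cells transiently transfected with LXRα/β full-length or LBD fused to NFkB activation domain, plus GAL4-DBD fusions of SRC1 coactivator or NCoR corepressor domains and a GAL4-responsive firefly luciferase reporter. Compounds added 4 h post-transfection (vehicle ≤0.2% DMSO), 16 h incubation; firefly luciferase normalized to Renilla.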

[4] = Pharmacokinetics in mice, blood and liver exposure via LC-MS; assay type: in vivo; conditions: for target tissue liver reached (in words): mice, systemic exposure minimized; for liver/blood ratio, 4 h / blood exposure, 4 h / liver exposure, 4 h: Dose (mg) 20, C57BL/6J mice; for blood exposure, 4 h / liver exposure, 4 h: 4 h after administration
Experimental: The pharmacokinetics of different sulfonamides was assessed in mice after single dosing and oral and intraperitoneal administrations. Blood and liver exposure was measured via LC-MS.
The study design was as follows:
Animals: C57BL/6J (Janvier) males
Diet: standard rodent chow
Vehicle for i.p. injection: 0.5% HPMC (w:v) in water, injection volume: <5 mL/kg
Animal handling: animals were withdrawn from food at least 12 h before administration
Design: single dose oral and bid ip administration, n=3 animals per group
Sacrifice: at t=4 h after administration
Bioanalytics: LC-MS of liver and blood samples

| EC50 [1] | EC50 [2] | EC50 [3] | target tissue liver reached (in words) [4] | liver/blood ratio, 4 h ([4]; po) | blood exposure, 4 h ([4]; po) | liver exposure, 4 h ([4]; po) | liver/blood ratio, 4 h ([4]; ip) | blood exposure, 4 h ([4]; ip) | liver exposure, 4 h ([4]; ip) | SMILES |
| --- | --- | --- | --- | --- | --- | --- | --- | --- | --- | --- |
| < 100 nM | < 100 nM | < 100 nM |  |  |  |  |  |  |  | Cc1cc(C)c(S(=O)(=O)N(Cc2ccc(-c3cccc(CC(=O)O)c3)cc2)C(C)c2ccc(C(F)(F)F)o2)c(C)c1 (centres unmarked) [2/2] |
| 100 to 1000 nM | 100 to 1000 nM | 100 to 1000 nM |  |  |  |  |  |  |  | Cc1cc(C)c(S(=O)(=O)N(Cc2ccc(-c3cccc(S(=O)(=O)C(C)(C)C(=O)O)c3)cc2)Cc2ccc(C(F)(F)F)o2)c(C)c1 [5/2] |
| < 100 nM | < 100 nM | < 100 nM | effectively reached | po: 18 | po: 300 ng/mL | po: 5398 ng/mL |  |  |  | Cc1cc(C)c(S(=O)(=O)N(Cc2ccc(-c3cccc(C(C)(C)C(=O)O)c3)cc2)Cc2ccc(C(F)(F)F)o2)c(C)c1 [7/5] |
| < 100 nM | < 100 nM | < 100 nM | effectively reached | po: 11 | po: 189 ng/mL | po: 2136 ng/mL |  |  |  | COc1cc(-c2cccc(C(C)(C)C(=O)O)c2)ccc1CN(Cc1ccc(C(F)(F)F)o1)S(=O)(=O)c1c(C)cc(C)cc1C [10/4] |
| < 100 nM | < 100 nM | < 100 nM | effectively reached | po: 21 | po: 242 ng/mL | po: 5120 ng/mL |  |  |  | Cc1cc(C)c(S(=O)(=O)N(Cc2ccc(C(F)(F)F)o2)Cc2ccc(-c3cccc(C(C)(C)C(=O)O)c3)cc2Cl)c(C)c1 [10/5] |
|  |  | 100 to 1000 nM | effectively reached | po: 125 | po: 0.01 μM | po: 1.07 μM |  |  |  | Cc1ccc2ccccc2c1S(=O)(=O)N(Cc1ccc(-c2cccc(S(=O)(=O)CC(=O)O)c2)cc1)Cc1cccc(C(F)(F)F)c1 [11/19] |
| 100 to 1000 nM | < 100 nM | < 100 nM |  |  |  |  |  |  |  | Cc1cc(C)c(S(=O)(=O)N(Cc2ccc(-c3cccc(CC(=O)O)c3)cc2)Cc2ccc(C(F)(F)F)o2)c(C)c1 [Example 2, 2-(4′-(((2,4,6-Trimethyl-N-((5-(trifluoromethyl)furan-2-yl)methyl)phenyl)sulfonamido)methyl)-[1,1′-biphenyl]-3-yl)acetic acid] |
|  |  | 100 to 1000 nM | effectively reached | po: 31 | po: 0.15 μM | po: 4.6 μM | ip: 27 | ip: 0.34 μM | ip: 9.3 μM | Cc1cc(C)c(S(=O)(=O)N(Cc2ccc(-c3cccc(S(=O)(=O)CC(=O)O)c3)cc2)Cc2ccc(C(F)(F)F)o2)c(C)c1 [Example 5, 2-((4′-(((2,4,6-Trimethyl-N-((5-(trifluoromethyl)furan-2-yl)methyl)phenyl)sulfonamido)methyl)-[1,1′-biphenyl]-3-yl)sulfonyl)acetic acid] |
| < 100 nM | < 100 nM | < 100 nM | effectively reached | po: 25 | po: 231 ng/mL | po: 5882 ng/mL |  |  |  | Cc1ccc2ccccc2c1S(=O)(=O)N(Cc1ccc(-c2cccc(C(C)(C)C(=O)O)c2)cc1)Cc1ccc(C(F)(F)F)o1 [Example 24, 2-Methyl-2-(4′-(((2-methyl-N-((5-(trifluoromethyl)furan-2-yl)methyl)naphthalene)-1-sulfonamido)methyl)-[1,1′-biphenyl]-3-yl)propanoic acid] |
| < 100 nM | < 100 nM | < 100 nM |  | po: 0.56 | po: 115 ng/mL | po: 64 ng/mL |  |  |  | Cc1cc(C)c(S(=O)(=O)N(Cc2ccc(-c3cc(F)c(CO)c(S(C)(=O)=O)c3)cc2)Cc2ccc(C(F)(F)F)o2)c(C)c1 [Example C3/2] |
